System: T1, Pseudomonas fluorescens lipase (PFL)
T1 construct: commercial lipase powder (Amano Enzyme Ltd., Nagoya, Japan), used without further treatment; free enzyme
Experiment: colorimetric p-nitrophenol release at […] nm; initial rates, linear regression (Lineweaver-Burk)
Format: biochemical
Settings: free enzyme; standard assay phosphate buffer pH 7.5, 40 °C, with Triton and acetone

Km: 760 µM
SMILES: CCCC(=O)Oc1ccc([N+](=O)[O-])cc1 [p-nitrophenol butyrate]

Reference: publication PMC11207022, “Enhanced Enzymatic Performance of Immobilized Pseudomonas fluorescens Lipase on ZIF-8@ZIF-67 and Its Application to the Synthesis of Neryl Acetate with Transesterification Reaction” (Molecules, 2024)
